The source of these data is paper PMC5541560, “A biomimetic semisynthesis enables structural elucidation of selaginellin U: a tautomeric cyclic alkynylphenol from Selaginella tamariscina” (Royal Society Open Science, 2017).

In the first experiment the target is T1, β-site amyloid precursor protein cleaving enzyme 1 (BACE1) (Homo sapiens, UniProt P56817). Briefly: FRET peptide substrate assay (Sigma kit CS0010), purified baculovirus-expressed BACE1. The class given is biochemical.
T1 sequence (P56817 46-457): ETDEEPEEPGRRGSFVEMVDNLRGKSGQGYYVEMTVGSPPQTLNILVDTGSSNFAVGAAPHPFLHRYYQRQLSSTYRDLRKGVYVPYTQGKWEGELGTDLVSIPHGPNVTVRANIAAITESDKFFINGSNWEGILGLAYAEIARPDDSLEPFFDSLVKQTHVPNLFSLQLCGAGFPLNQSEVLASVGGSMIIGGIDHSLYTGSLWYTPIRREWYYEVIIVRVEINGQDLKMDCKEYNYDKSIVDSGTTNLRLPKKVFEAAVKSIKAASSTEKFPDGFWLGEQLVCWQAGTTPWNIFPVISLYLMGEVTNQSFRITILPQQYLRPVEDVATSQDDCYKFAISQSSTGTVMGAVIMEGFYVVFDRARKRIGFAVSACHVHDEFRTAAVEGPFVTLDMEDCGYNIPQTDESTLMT
Turning to `O=Cc1ccc(-c2ccc(O)cc2)c(C(=C2C=CC(=O)C=C2)c2ccc(O)cc2)c1C#Cc1ccc(O)cc1` [compound 16, selaginellin O], the IC50 came out at 48.9 µM. On the same count and under the same terms, then `O=C1C=CC(=C(c2ccc(O)cc2)c2c(-c3ccc(O)cc3)ccc(CO)c2C#Cc2ccc(O)cc2)C=C1` [compound 3, selaginellin], with 81.2 µM; and `Cc1ccc(-c2ccc(O)cc2)c(C(=C2C=CC(=O)C=C2)c2ccc(O)cc2)c1C#Cc1ccc(O)cc1` [compound 13, selaginellin B], with 51.1 µM.

The next experiment addresses T1, β-site amyloid precursor protein cleaving enzyme 1 (BACE1). Briefly: biochemical. Details: FRET peptide substrate cleavage assay (Sigma kit CS0010), purified baculovirus-expressed BACE1, inhibition. The method, then: Compounds 1–3 and 7–16 were tested for β-site amyloid precursor protein (APP) cleaving enzyme 1 (BACE1) inhibitory activity. BACE1 inhibitory evaluation was performed with a fluorescence resonance energy transfer (FRET) assay kit supplied by Sigma (Kit CS0010, St. Louis, USA). The kit used purified baculovirus-expressed BACE1 and FRET peptide substrates.
As for `O=C1C=CC(=C(c2ccc(O)cc2)c2c(-c3ccc(O)cc3)ccc3c(=O)oc(-c4ccc(O)cc4)cc23)C=C1` [compound 2, selaginellin U], the IC50 was more than 100 µM. `Cc1ccc(-c2ccc(O)cc2)c(C(=C2C=CC(=O)C=C2)c2ccccc2)c1C#Cc1ccc(O)cc1` [compound 12, selaginellin A] returned an IC50 of more than 100 µM. Compound `OCc1ccc2c(c1C#Cc1ccc(O)cc1)C(c1ccc(O)cc1)(c1ccc(O)cc1)c1cc(O)ccc1-2` [compound 7, selaginpulvilin A] showed an IC50 of more than 100 µM. Take `O=C1OC(c2ccc(O)cc2)(c2ccc(O)cc2)c2c1cccc2-c1ccc(O)cc1` [compound 1, selaginellin T]: the IC50 was more than 100 µM. Same read-out and setting: then `COc1ccc(C(=C2C=CC(=O)C=C2)c2c(-c3ccc(O)cc3)ccc(CO)c2C#Cc2ccc(O)cc2)cc1` [compound 15, selaginellin M], with more than 100 µM.

The IC50 is the concentration needed to halve the response being measured.
